{"source": "paper PMC7827406", "about": "“Structure–Activity Relationship (SAR) Study of Spautin-1 to Entail the Discovery of Novel NEK4 Inhibitors” (International Journal of Molecular Sciences, 2021)", "test_in_all_cases": "biochemical", "set-up_in_all_cases": "Eurofins KinaseProfiler full panel at Km ATP, residual kinase activity (%) relative to DMSO", "key": {"[1]": {"target": "T1, CHK2(I157T)(h) (Homo sapiens, UniProt O96017, I157T)", "T1 construct": "gene CHEK2", "T1 sequence (O96017 whole entry I157T)": "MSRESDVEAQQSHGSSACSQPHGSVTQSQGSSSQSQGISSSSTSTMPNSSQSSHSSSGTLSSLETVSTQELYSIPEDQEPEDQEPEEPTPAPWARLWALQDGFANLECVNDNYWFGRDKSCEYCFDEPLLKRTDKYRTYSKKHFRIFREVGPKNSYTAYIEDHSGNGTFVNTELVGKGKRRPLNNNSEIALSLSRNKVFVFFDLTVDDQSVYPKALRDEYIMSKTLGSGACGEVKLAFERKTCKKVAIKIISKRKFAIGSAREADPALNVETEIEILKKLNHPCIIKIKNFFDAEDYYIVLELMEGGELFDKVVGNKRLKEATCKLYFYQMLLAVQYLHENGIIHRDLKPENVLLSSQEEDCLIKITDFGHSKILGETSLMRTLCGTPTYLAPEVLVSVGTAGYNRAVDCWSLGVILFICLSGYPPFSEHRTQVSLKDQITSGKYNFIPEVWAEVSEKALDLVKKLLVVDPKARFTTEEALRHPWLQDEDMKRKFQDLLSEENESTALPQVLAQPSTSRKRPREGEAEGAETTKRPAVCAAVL", "method_in_brief": "(§1)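 Radiometric kinase activity assays were run with ATP at Km and compounds at 10 µM, and remaining activity (%) was reported. A separate competitive binding screen measured DNA-tagged kinase displaced from immobilized active-site ligands by qPCR, giving percent kinase still bound at 10 µM compound in DMSO.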"}, "[2]": {"target": "SBK1(h) (Homo sapiens, UniProt Q52WX2)", "sequence (Q52WX2 whole entry)": "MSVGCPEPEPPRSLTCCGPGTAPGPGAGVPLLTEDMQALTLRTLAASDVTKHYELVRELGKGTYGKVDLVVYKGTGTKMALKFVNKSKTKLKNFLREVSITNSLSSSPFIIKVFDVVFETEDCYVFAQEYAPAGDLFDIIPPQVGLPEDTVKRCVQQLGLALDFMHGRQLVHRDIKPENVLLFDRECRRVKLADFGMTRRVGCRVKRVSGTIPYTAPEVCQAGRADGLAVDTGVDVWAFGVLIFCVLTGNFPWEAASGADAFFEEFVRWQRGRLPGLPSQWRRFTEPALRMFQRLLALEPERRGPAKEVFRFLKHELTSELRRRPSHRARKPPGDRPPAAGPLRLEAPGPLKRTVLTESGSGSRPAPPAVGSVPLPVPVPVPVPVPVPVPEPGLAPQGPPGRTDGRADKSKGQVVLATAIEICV", "method_in_brief": "as §1"}, "[3]": {"target": "T2, TTK(h) (Homo sapiens, UniProt P33981)", "T2 sequence (P33981 1-857)": "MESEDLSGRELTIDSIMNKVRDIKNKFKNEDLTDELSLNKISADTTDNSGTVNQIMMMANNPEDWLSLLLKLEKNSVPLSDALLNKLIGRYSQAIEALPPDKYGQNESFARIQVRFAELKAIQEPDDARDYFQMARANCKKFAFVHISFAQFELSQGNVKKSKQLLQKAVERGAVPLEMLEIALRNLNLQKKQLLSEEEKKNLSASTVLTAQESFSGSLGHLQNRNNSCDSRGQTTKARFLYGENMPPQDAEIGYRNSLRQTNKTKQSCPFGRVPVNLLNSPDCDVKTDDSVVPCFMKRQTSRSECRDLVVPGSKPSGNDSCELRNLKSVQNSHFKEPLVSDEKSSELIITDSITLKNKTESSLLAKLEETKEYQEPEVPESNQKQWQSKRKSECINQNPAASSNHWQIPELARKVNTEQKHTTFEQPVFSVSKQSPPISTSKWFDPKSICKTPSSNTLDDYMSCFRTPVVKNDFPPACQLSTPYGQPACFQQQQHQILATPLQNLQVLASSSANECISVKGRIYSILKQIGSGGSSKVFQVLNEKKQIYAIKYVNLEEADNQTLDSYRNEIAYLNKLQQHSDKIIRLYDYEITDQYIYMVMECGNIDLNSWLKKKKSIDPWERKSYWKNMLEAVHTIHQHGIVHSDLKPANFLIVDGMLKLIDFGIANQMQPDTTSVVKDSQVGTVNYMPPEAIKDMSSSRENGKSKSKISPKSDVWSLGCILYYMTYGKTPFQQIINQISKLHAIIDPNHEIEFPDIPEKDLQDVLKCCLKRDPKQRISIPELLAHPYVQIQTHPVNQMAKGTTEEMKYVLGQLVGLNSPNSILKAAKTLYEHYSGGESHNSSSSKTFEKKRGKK", "method_in_brief": "as §1"}, "[4]": {"target": "T3, Flt3(h) (Homo sapiens, UniProt P36888)", "T3 sequence (P36888 1-993)": "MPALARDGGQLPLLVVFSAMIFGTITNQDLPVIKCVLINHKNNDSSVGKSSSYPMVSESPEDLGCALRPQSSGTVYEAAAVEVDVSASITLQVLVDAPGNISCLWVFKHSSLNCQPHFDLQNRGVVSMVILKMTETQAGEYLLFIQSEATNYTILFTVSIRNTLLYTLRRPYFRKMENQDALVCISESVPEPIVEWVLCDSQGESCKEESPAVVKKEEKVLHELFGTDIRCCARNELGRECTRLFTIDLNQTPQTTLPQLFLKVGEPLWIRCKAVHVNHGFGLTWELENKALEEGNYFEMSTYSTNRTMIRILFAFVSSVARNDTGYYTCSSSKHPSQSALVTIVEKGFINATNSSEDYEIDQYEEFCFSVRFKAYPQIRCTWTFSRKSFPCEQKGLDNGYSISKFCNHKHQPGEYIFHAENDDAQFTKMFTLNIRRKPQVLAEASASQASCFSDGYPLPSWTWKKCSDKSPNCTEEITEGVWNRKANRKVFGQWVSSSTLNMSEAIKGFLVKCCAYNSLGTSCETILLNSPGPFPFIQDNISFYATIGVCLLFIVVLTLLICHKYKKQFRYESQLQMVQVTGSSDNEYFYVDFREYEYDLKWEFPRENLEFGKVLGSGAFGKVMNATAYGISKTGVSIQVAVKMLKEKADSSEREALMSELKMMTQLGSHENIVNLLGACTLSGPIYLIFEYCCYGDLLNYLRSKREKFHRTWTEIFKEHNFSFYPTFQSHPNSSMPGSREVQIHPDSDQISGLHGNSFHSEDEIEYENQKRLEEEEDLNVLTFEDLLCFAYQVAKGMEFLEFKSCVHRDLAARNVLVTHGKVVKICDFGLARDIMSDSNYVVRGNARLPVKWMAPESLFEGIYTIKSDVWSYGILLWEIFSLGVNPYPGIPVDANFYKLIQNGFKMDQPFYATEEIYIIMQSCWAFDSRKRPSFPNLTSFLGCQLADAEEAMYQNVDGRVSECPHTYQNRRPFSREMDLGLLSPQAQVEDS", "method_in_brief": "as §1"}, "[5]": {"target": "IRAK1(h) (Homo sapiens, UniProt P51617)", "sequence (P51617 whole entry)": "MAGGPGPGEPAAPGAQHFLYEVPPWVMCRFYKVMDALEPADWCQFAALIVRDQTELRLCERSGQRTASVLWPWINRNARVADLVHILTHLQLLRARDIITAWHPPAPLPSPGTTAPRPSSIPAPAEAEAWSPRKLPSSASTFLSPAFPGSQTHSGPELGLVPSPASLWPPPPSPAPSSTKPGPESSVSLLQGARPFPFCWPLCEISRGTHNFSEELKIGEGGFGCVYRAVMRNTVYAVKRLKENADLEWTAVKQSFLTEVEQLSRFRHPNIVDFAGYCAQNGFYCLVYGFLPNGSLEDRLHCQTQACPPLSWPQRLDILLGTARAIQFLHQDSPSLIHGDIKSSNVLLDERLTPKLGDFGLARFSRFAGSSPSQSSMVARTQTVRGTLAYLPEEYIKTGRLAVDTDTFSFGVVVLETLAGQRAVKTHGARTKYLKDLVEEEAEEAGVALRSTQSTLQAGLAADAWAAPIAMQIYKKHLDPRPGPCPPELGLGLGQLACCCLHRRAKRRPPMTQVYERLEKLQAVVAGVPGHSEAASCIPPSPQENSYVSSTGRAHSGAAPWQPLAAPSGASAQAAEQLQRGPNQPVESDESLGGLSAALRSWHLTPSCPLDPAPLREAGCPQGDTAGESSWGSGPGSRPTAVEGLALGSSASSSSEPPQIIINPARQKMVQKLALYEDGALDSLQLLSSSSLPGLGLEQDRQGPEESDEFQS", "method_in_brief": "as §1"}, "[6]": {"target": "PAK6(h) (Homo sapiens, UniProt Q9NQU5)", "sequence (Q9NQU5 whole entry)": "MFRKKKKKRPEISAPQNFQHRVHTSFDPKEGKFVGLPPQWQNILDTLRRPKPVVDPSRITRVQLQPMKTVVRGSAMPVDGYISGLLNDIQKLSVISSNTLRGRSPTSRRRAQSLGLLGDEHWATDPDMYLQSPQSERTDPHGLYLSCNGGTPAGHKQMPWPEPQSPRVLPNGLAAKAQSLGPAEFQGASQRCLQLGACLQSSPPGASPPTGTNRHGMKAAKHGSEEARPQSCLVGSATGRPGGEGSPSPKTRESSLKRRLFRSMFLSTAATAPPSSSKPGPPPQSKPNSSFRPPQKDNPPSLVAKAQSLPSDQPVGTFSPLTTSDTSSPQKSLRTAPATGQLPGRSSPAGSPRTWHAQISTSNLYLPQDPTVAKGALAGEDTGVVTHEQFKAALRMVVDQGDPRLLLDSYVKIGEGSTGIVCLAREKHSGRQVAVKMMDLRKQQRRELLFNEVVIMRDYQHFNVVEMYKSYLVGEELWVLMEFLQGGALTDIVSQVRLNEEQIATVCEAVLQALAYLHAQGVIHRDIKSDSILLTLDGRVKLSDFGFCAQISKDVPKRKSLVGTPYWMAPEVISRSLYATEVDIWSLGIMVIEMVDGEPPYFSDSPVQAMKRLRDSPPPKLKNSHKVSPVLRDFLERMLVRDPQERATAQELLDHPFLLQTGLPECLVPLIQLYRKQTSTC", "method_in_brief": "as §1"}, "[7]": {"target": "LTK(h) (Homo sapiens, UniProt P29376)", "sequence (P29376 whole entry)": "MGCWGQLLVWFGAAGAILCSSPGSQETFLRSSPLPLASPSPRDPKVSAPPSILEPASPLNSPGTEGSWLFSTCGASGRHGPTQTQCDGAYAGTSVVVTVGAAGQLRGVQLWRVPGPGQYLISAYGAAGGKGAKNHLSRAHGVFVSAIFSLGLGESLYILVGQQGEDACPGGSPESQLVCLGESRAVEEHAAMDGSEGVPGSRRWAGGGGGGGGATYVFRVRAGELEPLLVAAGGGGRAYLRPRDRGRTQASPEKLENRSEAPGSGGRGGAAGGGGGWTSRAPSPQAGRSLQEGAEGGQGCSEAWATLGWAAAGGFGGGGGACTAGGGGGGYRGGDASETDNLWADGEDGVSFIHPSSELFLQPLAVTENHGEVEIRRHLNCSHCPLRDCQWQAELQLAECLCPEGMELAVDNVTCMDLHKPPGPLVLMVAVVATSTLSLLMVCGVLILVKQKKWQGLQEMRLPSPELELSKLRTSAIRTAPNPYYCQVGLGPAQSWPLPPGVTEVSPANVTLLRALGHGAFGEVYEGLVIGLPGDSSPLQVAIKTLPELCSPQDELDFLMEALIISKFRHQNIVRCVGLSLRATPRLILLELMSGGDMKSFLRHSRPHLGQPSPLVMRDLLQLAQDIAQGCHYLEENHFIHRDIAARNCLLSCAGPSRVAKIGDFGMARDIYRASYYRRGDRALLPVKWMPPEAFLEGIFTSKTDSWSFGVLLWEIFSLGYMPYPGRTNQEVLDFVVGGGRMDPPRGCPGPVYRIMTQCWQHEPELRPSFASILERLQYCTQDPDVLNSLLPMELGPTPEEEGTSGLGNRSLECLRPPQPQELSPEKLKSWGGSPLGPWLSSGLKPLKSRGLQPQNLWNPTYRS", "method_in_brief": "as §1"}, "[8]": {"target": "LIMK1(h) (Homo sapiens, UniProt P53667)", "sequence (P53667 whole entry)": "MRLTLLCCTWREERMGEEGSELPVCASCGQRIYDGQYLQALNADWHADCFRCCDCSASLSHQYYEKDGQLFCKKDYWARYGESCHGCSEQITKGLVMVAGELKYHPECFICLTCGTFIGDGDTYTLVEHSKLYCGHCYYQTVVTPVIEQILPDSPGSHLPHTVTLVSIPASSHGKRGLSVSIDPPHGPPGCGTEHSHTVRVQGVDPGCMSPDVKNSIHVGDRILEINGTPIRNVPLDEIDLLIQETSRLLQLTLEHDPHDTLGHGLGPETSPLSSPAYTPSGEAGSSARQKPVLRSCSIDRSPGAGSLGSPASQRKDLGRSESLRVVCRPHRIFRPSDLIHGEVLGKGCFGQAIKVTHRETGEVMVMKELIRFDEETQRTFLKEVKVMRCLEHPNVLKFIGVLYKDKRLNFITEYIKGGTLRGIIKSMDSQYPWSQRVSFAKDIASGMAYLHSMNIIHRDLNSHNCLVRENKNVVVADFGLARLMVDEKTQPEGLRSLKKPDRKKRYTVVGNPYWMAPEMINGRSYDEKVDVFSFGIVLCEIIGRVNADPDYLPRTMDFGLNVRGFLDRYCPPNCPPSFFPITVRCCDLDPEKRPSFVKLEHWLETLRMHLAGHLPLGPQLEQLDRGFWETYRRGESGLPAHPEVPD", "method_in_brief": "as §1"}, "[9]": {"conditions": "read-out: Residual activity (%) Spautin-1 5aa"}, "[10]": {"conditions": "read-out: Residual activity (%) 5as"}, "[11]": {"conditions": "read-out: Residual activity (%) 5at"}, "[12]": {"conditions": "read-out: Residual activity (%) 5ay"}}, "note": "Read-outs that look alike come from different tables or passages of the source.", "data": [{"smiles": "Fc1ccc(CNc2ncnc3ccc(F)cc23)cc1", "note": "[5aa, 6-Fluoro-N-(4-fluorobenzyl)-4-Quinazolinamine]", "values": [{"measurement": "remaining activity at 10 µM", "setting": "[1]; [9]", "value": 88, "unit": "%"}, {"measurement": "remaining activity at 10 µM", "setting": "[2]; [9]", "value": 106, "unit": "%"}, {"measurement": "remaining activity at 10 µM", "setting": "[3]; [9]", "value": 64, "unit": "%"}, {"measurement": "remaining activity at 10 µM", "setting": "[4]; [9]", "value": 71, "unit": "%"}, {"measurement": "remaining activity at 10 µM", "setting": "[5]; [9]", "value": 114, "unit": "%"}, {"measurement": "remaining activity at 10 µM", "setting": "[6]; [9]", "value": 92, "unit": "%"}, {"measurement": "remaining activity at 10 µM", "setting": "[7]; [9]", "value": 88, "unit": "%"}, {"measurement": "remaining activity at 10 µM", "setting": "[8]; [9]", "value": 97, "unit": "%"}]}, {"smiles": "Fc1ccc(CCNc2ncnc3ccc(F)cc23)cc1", "note": "[5as, 6-Fluoro-N-[2-(4-Fluorophenyl)Ethyl]-4-Quinazolinamine]", "values": [{"measurement": "remaining activity at 10 µM", "setting": "[1]; [10]", "value": 105, "unit": "%"}, {"measurement": "remaining activity at 10 µM", "setting": "[2]; [10]", "value": 95, "unit": "%"}, {"measurement": "remaining activity at 10 µM", "setting": "[3]; [10]", "value": 84, "unit": "%"}, {"measurement": "remaining activity at 10 µM", "setting": "[4]; [10]", "value": 73, "unit": "%"}, {"measurement": "remaining activity at 10 µM", "setting": "[5]; [10]", "value": 87, "unit": "%"}, {"measurement": "remaining activity at 10 µM", "setting": "[6]; [10]", "value": 84, "unit": "%"}, {"measurement": "remaining activity at 10 µM", "setting": "[7]; [10]", "value": 76, "unit": "%"}, {"measurement": "remaining activity at 10 µM", "setting": "[8]; [10]", "value": 76, "unit": "%"}]}, {"smiles": "Fc1ccc2ncnc(NCCc3ccc(Cl)cc3)c2c1", "note": "[5at, N-[2-(4-Chlorophenyl)Ethyl]-6-Fluoro-4-Quinazolinamine]", "values": [{"measurement": "remaining activity at 10 µM", "setting": "[1]; [11]", "value": 99, "unit": "%"}, {"measurement": "remaining activity at 10 µM", "setting": "[2]; [11]", "value": 103, "unit": "%"}, {"measurement": "remaining activity at 10 µM", "setting": "[3]; [11]", "value": 89, "unit": "%"}, {"measurement": "remaining activity at 10 µM", "setting": "[4]; [11]", "value": 62, "unit": "%"}, {"measurement": "remaining activity at 10 µM", "setting": "[5]; [11]", "value": 106, "unit": "%"}, {"measurement": "remaining activity at 10 µM", "setting": "[6]; [11]", "value": 92, "unit": "%"}, {"measurement": "remaining activity at 10 µM", "setting": "[7]; [11]", "value": 74, "unit": "%"}, {"measurement": "remaining activity at 10 µM", "setting": "[8]; [11]", "value": 72, "unit": "%"}]}, {"smiles": "COc1ccc2ncnc(Nc3cccc(F)c3)c2c1", "note": "[5ay, N-(3-Fluorophenyl)-6-Methoxy-4-Quinazolinamine]", "values": [{"measurement": "remaining activity at 10 µM", "setting": "[1]; [12]", "value": 91, "unit": "%"}, {"measurement": "remaining activity at 10 µM", "setting": "[2]; [12]", "value": 83, "unit": "%"}, {"measurement": "remaining activity at 10 µM", "setting": "[3]; [12]", "value": 104, "unit": "%"}, {"measurement": "remaining activity at 10 µM", "setting": "[4]; [12]", "value": 70, "unit": "%"}, {"measurement": "remaining activity at 10 µM", "setting": "[5]; [12]", "value": 87, "unit": "%"}, {"measurement": "remaining activity at 10 µM", "setting": "[6]; [12]", "value": 86, "unit": "%"}, {"measurement": "remaining activity at 10 µM", "setting": "[7]; [12]", "value": 76, "unit": "%"}, {"measurement": "remaining activity at 10 µM", "setting": "[8]; [12]", "value": 64, "unit": "%"}]}]}
